The nature of data set [1]: Luminescence Cell-Based Secondary HTS screen to identify cytotoxic compounds of NIH3T3 cells. [Related pubchem assays: 1885, 1968 ]. It counts as functional.
A short description of data set [2]: inhibitors of Trypanosoma cruzi host-cell infection, confirmation, beta-gal luminescence, NIH3T3 host cells (AID 2630). Type of data set: functional, cell-based. Particulars: Mus musculus.
The nature of data set [3]: Luminescence Cell-Based/Microorganism Confirmation at Dose of Inhibitors of Trypanosoma cruzi Infection. [Related pubchem assays: 1885, 1968 ]. It counts as functional.
Data set [4] in a line: growth induction of Burl-1 ts yeast mutant, dose response, counter-screen for SUMOylation pathway inhibitor project, whole organism, S. cerevisiae, luminescence (AID 463199). Type of data set: functional. For orientation: A counterscreen serves to expose hits that act by an unwanted route or on another target.
Data set [5] relates to HEK293. Nature of the data set: cells. Type of data set: functional, cell-based. To be noted: Homo sapiens.
The target in data set [6] is Nucleotide-binding oligomerization domain-containing protein 2 (Homo sapiens, UniProt Q9HC29). Description: NOD2 signaling inhibitors, cell-based, luminescence, uHTS, HEK293 (AID 1566). Type of data set: functional.
Data set [7] in a line: cytotoxicity in HEK-293T cells, dose response, cytotoxicity control for TCR NF-kB inhibitor project, luminescence, T-cell screen hits (AID 489026).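 Note: cells exposed to compound about 14 hours before the viability readout.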 Type of data set: functional, cell-based.
Data set [8] deals with HEK293. Description: cells. Particulars: Homo sapiens.
In data set [9] the test system is HEK293. Nature of the data set: cells. It counts as functional, cell-based. To be noted: Homo sapiens. This is another data set of the same source.
Data set [10] relates to HEK293. Description: cells. To be noted: Homo sapiens. It counts as functional, cell-based. The source holds these as a separate data set.
Data set [11] has as its system HEK293. Description: NOD2 signaling inhibitors in MDP-stimulated cells, cell-based, uHTS, luminescence (AID 2001). It counts as functional. Particulars: Homo sapiens.
Data set [12] concerns the target Nucleotide-binding oligomerization domain-containing protein 1 (Homo sapiens, UniProt Q9Y239). Description: NOD1 signaling inhibitors, SAR follow-up, revised (AID 2333). It counts as functional.
The target of a further data set is Tumor necrosis factor (Homo sapiens, UniProt P01375). Nature of the data set: TNFa-triggered NF-kB activation inhibitors, SAR follow-up, cell-based, revised (AID 2337). It counts as functional.
Data set [13] concerns HEK293. Description: NOD1 signaling inhibitors, primary screen, cell-based, luminescence, uHTS (AID 1578). It counts as functional. Particulars: Homo sapiens.
Data set [14] deals with T1, Cytochrome P450 1A2 (Homo sapiens, UniProt P05177).
T1 sequence (P05177 whole entry): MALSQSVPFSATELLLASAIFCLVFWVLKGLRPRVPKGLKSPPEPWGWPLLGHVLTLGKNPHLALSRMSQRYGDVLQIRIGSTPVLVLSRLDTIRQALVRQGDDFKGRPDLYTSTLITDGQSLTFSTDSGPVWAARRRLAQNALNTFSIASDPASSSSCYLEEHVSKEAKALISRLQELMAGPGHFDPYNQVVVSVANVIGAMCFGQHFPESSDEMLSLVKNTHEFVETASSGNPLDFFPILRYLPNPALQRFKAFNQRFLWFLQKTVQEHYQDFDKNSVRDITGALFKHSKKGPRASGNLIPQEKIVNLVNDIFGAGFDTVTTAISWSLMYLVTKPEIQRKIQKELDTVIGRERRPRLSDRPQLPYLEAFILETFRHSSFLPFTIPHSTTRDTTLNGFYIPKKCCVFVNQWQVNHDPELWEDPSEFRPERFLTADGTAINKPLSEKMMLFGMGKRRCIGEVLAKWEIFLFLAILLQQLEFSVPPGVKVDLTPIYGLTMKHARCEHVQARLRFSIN

In the next data set the target is Cytochrome P450 2C9 (Homo sapiens, UniProt P11712).
For data set [15], the target named is T2, Tyrosine-protein phosphatase non-receptor type 7 (Homo sapiens, UniProt P35236). Type of data set: functional.
In data set [16] the target is T3, Tyrosine-protein phosphatase non-receptor type 22 (Homo sapiens, UniProt Q9Y2R2).
T3 sequence (Q9Y2R2 whole entry): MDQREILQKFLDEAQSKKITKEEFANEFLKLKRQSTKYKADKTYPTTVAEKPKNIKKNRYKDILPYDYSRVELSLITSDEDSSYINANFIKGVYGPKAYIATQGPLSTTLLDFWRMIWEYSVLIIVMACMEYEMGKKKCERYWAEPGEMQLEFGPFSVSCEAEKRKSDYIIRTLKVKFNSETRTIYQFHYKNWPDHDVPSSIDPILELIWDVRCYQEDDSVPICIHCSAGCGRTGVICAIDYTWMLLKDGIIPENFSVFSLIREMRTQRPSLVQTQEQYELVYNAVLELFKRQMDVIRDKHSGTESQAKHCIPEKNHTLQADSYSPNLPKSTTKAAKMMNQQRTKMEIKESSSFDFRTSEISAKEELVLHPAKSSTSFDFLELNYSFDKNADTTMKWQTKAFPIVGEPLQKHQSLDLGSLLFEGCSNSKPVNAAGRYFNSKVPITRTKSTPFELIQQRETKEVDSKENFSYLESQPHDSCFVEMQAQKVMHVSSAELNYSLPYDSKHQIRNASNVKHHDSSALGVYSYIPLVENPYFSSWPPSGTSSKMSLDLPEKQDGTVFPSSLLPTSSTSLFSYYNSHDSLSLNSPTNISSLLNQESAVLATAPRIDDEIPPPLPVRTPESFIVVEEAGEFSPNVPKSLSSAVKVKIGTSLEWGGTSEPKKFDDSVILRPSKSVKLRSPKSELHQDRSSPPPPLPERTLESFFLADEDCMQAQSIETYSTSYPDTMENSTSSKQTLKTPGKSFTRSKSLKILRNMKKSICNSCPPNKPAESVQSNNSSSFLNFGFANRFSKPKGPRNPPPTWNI
Type of data set: functional.

Data set [17] deals with T3, Tyrosine-protein phosphatase non-receptor type 22. It counts as functional. The source holds these as a separate data set.
Data set [18] deals with T4, Dual specificity protein phosphatase 3 (Homo sapiens, UniProt P51452). Nature of the data set: MOA VHR1 Fluorescent secondary assay for identification of redox-state modulating compounds. [Related pubchem assays (depositor defined):AID1654, AID1661, AID1878, AID1957].
The target in data set [19] is Dual specificity protein phosphatase 6 (Rattus norvegicus, UniProt Q64346). It counts as functional.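 Note: confirmatory in vitro dose-response testing of MKP-3 inhibition; recombinant His-tagged MKP-3 made in E. coli BL21 with OMFP substrate.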
The target in data set [20] is T2, Tyrosine-protein phosphatase non-receptor type 7. Description: redox-dependent HePTP inhibition, mechanism study, biochemical, fluorescence (AID 2068). It counts as functional.
Data set [21] has as its target T4, Dual specificity protein phosphatase 3. Description: SAR VHR1 Fluorescent Assay for In Vitro dose response studies. [Related pubchem assays (depositor defined):AID1654, AID1661, AID1878, AID1992, AID2004, AID2070, AID2085]. It counts as functional.
The next data set concerns the target CAAX prenyl protease 1 (Saccharomyces cerevisiae S288c, UniProt P47154). Nature of the data set: Ste24 protease inhibitors, dose response, biochemical, S. cerevisiae, plate reader, cherry-pick (AID 488815).
The next data set concerns the target CAAX prenyl protease 2 (Homo sapiens, UniProt Q9Y256). Description: human Rce1 protease inhibitors, dose response, biochemical, yeast membranes, quenched-peptide fluorescence, cherry-pick (AID 588849).
Another data set deals with Phosphomannomutase 2 (Homo sapiens, UniProt O15305). Description: Counter screen SAR assay for PMM2 inhibitors via a fluorescence intensity assay. [Related pubchem assays (depositor defined):AID1545, AID1574].
The target in data set [22] is T5, Mannose-6-phosphate isomerase (Homo sapiens, UniProt P34949).
T5 sequence (P34949 whole entry): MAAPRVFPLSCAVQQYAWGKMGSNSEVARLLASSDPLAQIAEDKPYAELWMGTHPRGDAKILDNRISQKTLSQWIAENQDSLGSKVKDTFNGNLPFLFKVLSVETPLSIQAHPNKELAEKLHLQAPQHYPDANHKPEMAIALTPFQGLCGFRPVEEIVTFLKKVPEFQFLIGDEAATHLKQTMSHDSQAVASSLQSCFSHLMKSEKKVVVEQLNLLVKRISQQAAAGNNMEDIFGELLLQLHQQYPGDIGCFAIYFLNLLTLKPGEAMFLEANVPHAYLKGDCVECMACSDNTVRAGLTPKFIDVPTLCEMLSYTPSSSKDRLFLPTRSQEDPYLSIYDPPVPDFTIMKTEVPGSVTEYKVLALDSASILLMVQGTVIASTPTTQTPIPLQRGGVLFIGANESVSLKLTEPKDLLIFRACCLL
Nature of the data set: PMI enzyme inhibitors, confirmation, biochemical, fluorescence intensity (AID 1535).

For data set [23], the target named is Phosphoethanolamine/phosphocholine phosphatase (Homo sapiens, UniProt Q8TCT1). Nature of the data set: SAR assay for compounds that inhibit PHOSPHO1. [Related pubchem assays (depositor defined):AID1545, AID1565, AID1574].
The target of data set [24] is T1, Cytochrome P450 1A2. The source holds these as a separate data set.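 Note: PubChem cytochrome P450 panel assay, CYP1A2 panel member.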
The target in another data set is Troponin, cardiac muscle (Homo sapiens, UniProt P19429+P45379+P63316). Nature of the data set: Fluorescence-based biochemical high throughput dose response assay for activators of the calcium sensitivity of cardiac Regulated Thin Filaments (RTF). [Related pubchem assays (depositor defined):AID493008, AID493018, AID504382, AID504383]. Type of data set: protein-complex assay.

A further data set has as its target Cytochrome P450 2D6 (Homo sapiens, UniProt P10635).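 Note: CYP2D6 member of a cytochrome P450 panel assay.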
The target in a further data set is Keap1/Nrf2 (Homo sapiens, UniProt Q14145). Nature of the data set: Keap1-Nrf2 protein-protein interaction inhibitors, dose response, biochemical, fluorescence polarization, cherry-picked samples (AID 588683). For orientation: In fluorescence polarisation assays a small probe gives low polarisation when free and higher when bound to something large.
Data set [25] can be described thus: inhibitors of firefly luciferase expression or activity, dose response, H4 neuroglioma cells, luminescence (AID 1990). Type of data set: functional, cell-based.
The next data set can be described thus: cells. It counts as functional, cell-based.
Data set [26] is described as follows: luciferase reporter signal reduction – luminescence, H4-C neuroglioblastoma cells, dose response (AID 2458).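 Note: H4 neuroglioblastoma cells stably carrying a luciferase reporter gene fusion.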 It counts as functional, cell-based.
The test system of the next data set is Jurkat. Nature of the data set: antigen receptor-induced NF-kB inhibitors, dose response, Jurkat, luciferase reporter, luminescence, B- and T-cell (AID 489004).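 Note: NF-kB luciferase reporter Jurkat cells stimulated with PMA plus ionomycin.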 To be noted: Homo sapiens. It counts as functional, cell-based. For orientation: In a reporter assay the amount or activity of a reporter protein is the signal.
Data set [27] is described as follows: cytotoxicity in HEK-293T NF-kB-Luc cells, dose response, cytotoxicity control for B/T-cell NF-kB inhibitor project, cell-based, uHTS hits (AID 489019).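 Note: IC50 reflects cytotoxicity as loss of cell viability.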 Type of data set: functional.
Data set [28] in a line: inhibitors of SNCA 5'UTR-driven reporter translation, confirmation, H4 neuroglioma cells, luminescence (AID 1988). It counts as functional, cell-based.
Data set [29] is described as follows: inhibitors of SNCA 5'UTR-driven translation, confirmation, luminescence, H4 neuroglioblastoma cells, dose confirmation (AID 2454).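 Note: H4 neuroglioblastoma cells carrying an alpha-synuclein 5'UTR luciferase reporter; potency for inhibition of the luciferase signal.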 Type of data set: functional, cell-based.
Data set [30] is described as follows: Luminescence Cell-Based Dose Response HTS to Identify Inhibitors of 5'UTR Stem-Loop Driven Prion Protein mRNA Translation in H4 Neuroglioblastoma Cells. [Related pubchem assays: 1827 (Project Summary), 1813 (Primary HTS)]. Type of data set: functional.

The source made the active and inactive calls. Bounds are passed on as bounds.

As a reminder, the EC50 is the concentration at which the effect is half-maximal. Regarding `CC1CC(C)CN(CCOCCSc2ccccc2)C1` (stereo not given), the EC50 in data set [1] is > 195 µM (not active); in data set [2], 0.098 µM (active); in data set [3] it was 0.098 µM (active).
A word on the AC50: it is the concentration at which the activity in the assay is half-maximal. For `Cc1cccc(N2C(=O)/C(=C/c3cccnc3)SC2=S)c1`, the AC50 in [4] is 51.7 µM (active).
Usually IC50 stands for the concentration needed to halve the response being measured. In the case of `Cc1cc(-c2ccc(C)c(S(=O)(=O)N3CCN(c4ccc([N+](=O)[O-])cc4)CC3)c2)on1`, the IC50 in the data set on HEK293 [5] is > 20 µM (inactive); in [7], > 80 µM (inactive); in the data set on HEK293 [8] it was > 20 µM (inactive); in the data set with HEK293 [9], > 20 µM (inactive); with HEK293 [10] it was 2.36 µM (active); with HEK293 [11] it was 7.6 µM (inactive). Moreover, the IC50 is 2.42 µM (active) in [12] and 2.11 µM (active) at Tumor necrosis factor. Moreover, the EC50 was > 20 µM (inactive) in [6] and 2.09 µM (active) with HEK293 [13].
On to `CC(=O)N1CCC2(CC1)CN(c1ccncc1)C2`, for which the AC50 result on Cytochrome P450 1A2 [14] and at Cytochrome P450 2C9 was “inconclusive” each time.
Consider `C=CCN(CC=C)C(=S)NC(=O)/C=C/c1ccc(C)cc1`, for which the IC50 in data set [15], in data set [16] and in data set [17] was > 79.4 µM (inactive) throughout.
In the case of `CCOC(=O)C1=C(c2ccccc2)N=c2sc(=Cc3cc(OC)c(OC)c(OC)c3)c(=O)n2C1c1cccs1` (stereo not given), the IC50 in [18], in data set [19], in data set [20] and in data set [21] was > 50 µM (inactive) throughout.
Turning to `O=C(NCC1CC1)c1cc(-c2ccccc2)nn1CC1CC(c2cccc([N+](=O)[O-])c2)=NO1` (stereo not given), the AC50 was 6.73 µM (active) on CAAX prenyl protease 1 and 11.7 µM (active) on CAAX prenyl protease 2.
`O=c1c2ccc(F)cc2sn1-c1ccc(Cl)cc1Cl`: the IC50 at Phosphomannomutase 2 is > 100 µM (inactive); in data set [22], 14.4 µM (active); in data set [23], 0.534 µM (active).
With `CN1CCC2(CC1)C1CN(C)CC=C1C(C#N)=C(N)C2(C#N)C#N` (stereo not given), the AC50 at Cytochrome P450 1A2 [24] is 20 µM (inconclusive); at Cytochrome P450 2D6, 14.1 µM (inconclusive); at Keap1/Nrf2, > 52 µM (inactive). In addition, the EC50 at Troponin, cardiac muscle is 9 µM (active).
In the case of `Cc1nn(C(C)(C)C)c(C)c1/C=N/OC(=O)Nc1ccc(Cl)cc1`, the EC50 in data set [25] was < 0.1 µM (active); in the data set “cells”, 0.075 µM (active); in data set [26], 0.059 µM (active); in data set [28], < 0.1 µM (active); in data set [29], 0.037 µM (active); in data set [30] it was < 0.1 µM (active). Also, the figures for the IC50 (in the data set with Jurkat; in data set [27]) were < 0.16 µM (active) and > 80 µM (inactive), respectively.
